As usually defined, the pIC50 is the IC50 on a negative log10 scale, so that one unit is a factor of ten. One may read the pKi as −log10 of the Ki, conventionally taken in molar units.

The record followed here is PMC7592892, “Anemarsaponin BII inhibits the activity of CYP3A4, 2D6, and 2E1 with human liver microsomes” (Pharmaceutical Biology, 2020).

pIC50, pKi: −log10 of the molar value.

Holding throughout (format): in vitro ADME
For one series, the target named is T1, CYP2E1 (Homo sapiens, UniProt P05181).
T1 construct: marker reactions with specific substrates in human liver microsomes (HLMs); from tissue; host or cells: pooled human liver microsomes
Kind of series: CYP2E1 inhibition in pooled human liver microsomes (chlorzoxazone 6-hydroxylation). The settings on record: for pIC50: 0-100 μM anemarsaponin BII. On the procedure:
(§1) The activity of CYP450s was evaluated by the marker reactions with specific substrates in human liver microsomes (HLMs). The reaction conditions are summarized in Table 1 according to previous studies. The concentration of anemarsaponin BII was 100 μM with the following concentration of specific inhibitors: 10 μM furafylline for CYP1A2, 10 μM tranylcypromine for CYP2A6, 1 μM ketoconazole for CYP3A4, 5 μM montelukast for CYP2C8, 10 μM sulfaphenazole for CYP2C9, 50 μM tranylcypromine for CYP2C19, 10 μM quinidine for CYP2D6, 50 μM clomethiazole for CYP2E1. 200 μL incubation system included 100 mM potassium phosphate buffer (pH 7.4), NADPH generating system (1 mM NADP^+, 10 mM glucose-6-phosphate, 1 U/mL of glucose-6-phosphate dehydrogenase, and 4 mM MgCl2), the appropriate concentration of HLMs, a corresponding probe substrate and anemarsaponin BII (or positive inhibitor for different probe reactions). The HADPH-generating system was added before the incubation to preincubate for 3 min at 37 °C. The reaction was terminated with 100 μL acetonitrile (10% trichloroacetic acid for CYP2A6). Then, the mixture was centrifuged at 12,000 rpm for 10 min, and an aliquot (50 μL) of supernatant was transferred for HPLC analysis with the help of the Agilent 1260 series instrument with DAD and FLD detector according to previous studies. The HPLC conditions for analysis of corresponding metabolites of CYP isoforms are summarized in Table 2 based on previous studies (Lang et al. [2017]; Zhang et al. [2017]).
Incubations were performed in triplicate, and results were represented with the mean value. The final microsomal protein concentration and incubation times for the different probe reactions are summarized in Table 1 based on previous studies (Lang et al. [2017]; Wang et al. [2019]).
The effect of anemarsaponin BII on the activity of CYPs was evaluated in pooled human liver microsomes according to previous studies (Dong et al. [2018]; Wang et al. [2019]). The residual activity of eight CYP isoforms was first detected with 100 μM anemarsaponin BII in HLMs. Next, CYPs of which the activity was inhibited by anemarsaponin BII was incubated with 0, 2.5, 5, 10, 25, 50 and 100 μM anemarsaponin BII to explore the values of half inhibition concentration (IC50). Additionally, 0–50 μM anemarsaponin BII was incubated with various concentration of probe substrates (20–100 μM testosterone for CYP3A4, 10–50 μM dextromethorphan for CYP2D6, and 25–250 μM chlorzoxazone for CYP2E1) to obtain the values of KI.
(§2) The enzyme kinetic parameters for the probe reaction were estimated from the best fit line, using least-squares linear regression of the inverse substrate concentration versus the inverse velocity (Lineweaver–Burk plots), and the mean values were used to calculate Vmax and Km. Inhibition data from the experiments that were conducted using multiple compound concentrations were represented by Dixon plots, and inhibition constant (KI) values were calculated using non-linear regression according to the following equation: Competitive inhibition:v=(VmaxS)/(Km(1+I/KI)+S), Non-competitive inhibition:v=(VmaxS)/[Km+S(1+I/KIKi)] where I is the concentration of the compound, KI is the inhibition constant, S is the concentration of the substrate, and Km is the substrate concentration at half the maximum velocity (Vmax) of the reaction. The mechanism of the inhibition was inspected using the Lineweaver–Burk plots and the enzyme inhibition models. […]
Background: Microsomes from liver hold many membrane-bound enzymes, among them those of drug oxidation.

The target of the next series is T2, CYP2D6 (Homo sapiens, UniProt P10635).
T2 construct: marker reactions with specific substrates in human liver microsomes (HLMs); from tissue; host or cells: pooled human liver microsomes
Kind of series: CYP2D6 inhibition in pooled human liver microsomes (dextromethorphan O-demethylation). The method, then: as §1
(§3) Incubations were performed in triplicate, and results were represented with the mean value. […]
(§4) The effect of anemarsaponin BII on the activity of CYPs was evaluated in pooled human liver microsomes according to previous studies (Dong et al. [2018]; Wang et al. [2019]). The residual activity of eight CYP isoforms was first detected with 100 μM anemarsaponin BII in HLMs. […]
as §2, with “reaction.” for “reaction. The mechanism of the inhibition was inspected using the Lineweaver–Burk plots and the enzyme inhibition models.”

The target in the next series is T3, CYP3A4 (Homo sapiens, UniProt P08684).
T3 construct: marker reactions with specific substrates in human liver microsomes (HLMs); from tissue; host or cells: pooled human liver microsomes
Briefly: CYP3A4 inhibition in pooled human liver microsomes (testosterone 6β-hydroxylation). On the procedure:
as §1, §3, §4
as §2, with “reaction.” for “reaction. The mechanism of the inhibition was inspected using the Lineweaver–Burk plots and the enzyme inhibition models.”

Setting [1] is: 100 μM anemarsaponin BII, residual activity.
Where [2] appears, read: HLMs, 0-100 μM anemarsaponin BII.

T3 sequence (P08684 whole entry): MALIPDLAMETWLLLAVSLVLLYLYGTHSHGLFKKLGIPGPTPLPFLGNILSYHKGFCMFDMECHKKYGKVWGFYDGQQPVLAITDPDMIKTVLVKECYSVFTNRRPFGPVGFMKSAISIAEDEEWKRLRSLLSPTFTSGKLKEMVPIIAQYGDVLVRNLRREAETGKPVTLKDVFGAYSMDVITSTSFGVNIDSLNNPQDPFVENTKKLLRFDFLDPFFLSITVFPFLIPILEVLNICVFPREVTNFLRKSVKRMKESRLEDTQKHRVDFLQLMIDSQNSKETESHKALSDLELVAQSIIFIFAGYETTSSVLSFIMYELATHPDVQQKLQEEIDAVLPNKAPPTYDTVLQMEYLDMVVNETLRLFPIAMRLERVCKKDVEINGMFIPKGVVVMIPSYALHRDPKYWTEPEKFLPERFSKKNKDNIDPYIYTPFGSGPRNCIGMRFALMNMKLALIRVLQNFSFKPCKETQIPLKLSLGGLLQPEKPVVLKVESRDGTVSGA
T1 sequence (P05181 whole entry): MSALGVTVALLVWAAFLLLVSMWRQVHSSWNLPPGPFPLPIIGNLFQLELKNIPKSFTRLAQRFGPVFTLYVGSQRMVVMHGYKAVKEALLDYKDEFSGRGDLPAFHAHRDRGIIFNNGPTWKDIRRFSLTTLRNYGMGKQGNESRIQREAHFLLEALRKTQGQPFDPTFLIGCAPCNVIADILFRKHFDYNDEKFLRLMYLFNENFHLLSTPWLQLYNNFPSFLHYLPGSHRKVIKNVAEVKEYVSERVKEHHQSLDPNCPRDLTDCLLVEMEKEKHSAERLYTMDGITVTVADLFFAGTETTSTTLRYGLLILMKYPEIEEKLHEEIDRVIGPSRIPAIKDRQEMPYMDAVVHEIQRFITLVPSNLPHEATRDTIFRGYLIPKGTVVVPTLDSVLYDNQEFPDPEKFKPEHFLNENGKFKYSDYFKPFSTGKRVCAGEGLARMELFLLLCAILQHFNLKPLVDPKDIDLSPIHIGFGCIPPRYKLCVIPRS
T2 sequence (P10635 whole entry): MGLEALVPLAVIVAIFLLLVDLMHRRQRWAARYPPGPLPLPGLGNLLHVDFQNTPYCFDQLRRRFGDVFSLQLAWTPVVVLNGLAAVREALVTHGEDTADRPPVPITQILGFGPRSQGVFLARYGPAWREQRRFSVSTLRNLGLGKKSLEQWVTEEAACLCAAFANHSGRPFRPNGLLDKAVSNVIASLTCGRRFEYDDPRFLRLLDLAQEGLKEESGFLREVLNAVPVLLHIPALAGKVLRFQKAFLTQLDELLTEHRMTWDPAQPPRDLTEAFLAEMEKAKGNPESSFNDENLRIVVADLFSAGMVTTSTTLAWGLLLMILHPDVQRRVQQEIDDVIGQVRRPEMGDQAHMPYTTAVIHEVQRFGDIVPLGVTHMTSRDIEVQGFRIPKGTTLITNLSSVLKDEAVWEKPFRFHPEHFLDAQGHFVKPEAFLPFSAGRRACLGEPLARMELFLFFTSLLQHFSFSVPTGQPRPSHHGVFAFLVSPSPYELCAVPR

In the case of `CC(CCC1(O)OC2CC3C4CCC5CC(OC6OC(CO)C(O)C(O)C6OC6OC(CO)C(O)C(O)C6O)CCC5(C)C4CCC3(C)C2C1C)COC1OC(CO)C(O)C(O)C1O` (stereo not drawn) [anemarsaponin BII, Anemarsaponin BII], the “activity of CYP2E1 decreased to (relative to untreated HLMs)” value on CYP2E1 (setting [1]) is recorded as 23.45%. The “inhibition model CYP2E1 (Lineweaver–Burk)” value on CYP2E1 (HLMs) is on record as “competitive”. In addition, the negative logarithm of the IC50 (pIC50) against CYP2E1 (HLMs) was 4.71; against CYP2E1 (human, pooled human liver microsomes, pH 7.4, probe chlorzoxazone (6-hydroxylation), HLMs), 4.72; on CYP2D6 (setting [2]), 4.79; against CYP3A4 (setting [2]) it was 4.86. In addition, the pKi is 5.01 at CYP2E1 (HLMs, 25–250 μM chlorzoxazone, competitive model) and 5.08 on CYP2D6 (HLMs, 10–50 μM dextromethorphan, competitive model). The “activity of CYP2D6 decreased to (relative to untreated HLMs)” value on CYP2D6 (setting [1]) is reported as 18.79%. Also, on CYP2D6 (HLMs), the “inhibition model CYP2D6 (Lineweaver–Burk)” value is “competitive”. The “activity of CYP3A4 decreased to (relative to untreated HLMs)” value at CYP3A4 (setting [1]) is reported as 15.65%. On CYP3A4 (HLMs), the “inhibition model CYP3A4 (Lineweaver–Burk)” value is on record as “non-competitive”.
